# How the values were obtained:
# U937 cells = test: Apoptosis after dual Cdc25C/PP2Acα shRNA knockdown plus lenalidomide, U937 cells; type: cell-based; conditions: dual Cdc25C and PP2Acα shRNA knockdown 48 hours, then lenalidomide 5 μM for 48 hours
# Experimental: (§1) FIGS. 2A-2B are images of an RT-PCR gel (FIG. 2A) and Western blot (FIG. 2B) to detect PP2A and Cdc25C gene (FIG. 2A) and protein (FIG. 2B) expression in U937 cells infected with mock (lane 1), lentiviral vectors encoding non-target shRNA control (lane 2), shCdc25C (lane 3), shPP2Acα (lane 4), shCdc25C and PP2Acα (lane 5) and negative for PCR (lane 6) and harvested 48 hours after incubation. FIGS. 2C and 2D are bar graphs showing P2Acα and Cdc25c mRNA expression (copies/GAPDH) in U937 cells infected with mock, lentiviral vectors encoding non-target shRNA control, shCdc25C, shPP2Acα, or shCdc25C and PP2Acα. FIGS. 2E-2F are bar graphs showing apoptosis (%) in U937 cells (E) or BM-MNC (F) that were infected with lentiviral vectors containing various constructs as indicated for 48 hours and then treated with or without lenalidomide at the concentration of […] for additional 48 hours before being analyzed for apoptosis. […]
# (§2) U937 cells were infected with mock (lane 1), lentiviral vectors encoding non-target shRNA control (lane 2), shCdc25C (lane 3), shPP2Acα (lane 4), shCdc25C and PP2Acα (lane 5) and negative for PCR (lane 6). […] The U937 cells (FIG. 2C) or BM-MNC (FIG. 2D) were infected with lentiviral vectors containing various constructs as indicated for 48 hours and then treated with or without lenalidomide at the concentration of 5 μM for additional 48 hours before analyzed for apoptosis. […]
# del5q MDS = conditions: patients with del5q MDS; cited from earlier work
# [1] = system: BM-MNC from non-(del)5q MDS patients; test: Apoptosis after dual Cdc25C/PP2Acα shRNA knockdown plus lenalidomide, BM-MNC; type: cell-based, human; conditions: dual knockdown 48 hours, then lenalidomide 5 μM for 48 hours, p<0.001 vs shRNA control plus lenalidomide, five patients
# Experimental: as §1, §2
smiles,measurement,setting,value
"Nc1cccc2c1CN(C1CCC(=O)NC1=O)C2=O (racemic) [lenalidomide, (RS)-3-(4-Amino-1-oxo 1,3-dihydro-2H-isoindol-2-yl)piperidine-2,6-dione]",apoptotic response to lenalidomide,U937 cells,increases apoptotic response
same,median duration of response,del5q MDS,2.5 years
same,apoptotic response to lenalidomide,[1],increases apoptotic response
